Test results as given in patent US20120009152A1, “NITRIC OXIDE DONORS FOR TREATMENT OF DISEASE AND INJURY” (priority 2002, published 2012).

What was measured:
Format in all cases: in vivo, rat
[1] = system: rats subjected to middle cerebral artery occlusion (MCAo); test: Adhesive Removal Test after MCAo, combination study; conditions: treatment 1 day after stroke; NN 0.4 mg/kg IP, hMSCs 1×10^6 cells iv; vs control
Procedure: Male Wistar rats (n=32) were subjected to middle cerebral artery occlusion (MCAo) and were randomized with 8 rats in four treatment groups, with treatment initiated 1 day after stroke. Groups included: 1) phosphate buffered saline (PBS); 2) subtherapeutic DETA-NONOate (NN) at a dose of 0.4 mg/kg (IP); 3) subtherapeutic hMSCs (1×10^6 cells-iv); and 4) combination subtherapeutic NN and hMSCs. Functional outcome measurements consisted of a Neurologic Severity Scale (18 point scale) (NSS) and the Adhesive Removal Test performed prior to stroke, immediately before treatment and at 7 and 14 days after treatment. […] However, there was an overall hMSC effect on NSS at 14 days.

[2] = system: rats subjected to embolic middle cerebral artery occlusion; test: Adhesive removal test after embolic MCA occlusion
Procedure: Male Wistar rats weighing 320 to 380 g were used in the present study. The middle cerebral artery (MCA) was occluded by placement of an embolus at the origin of the MCA.
Ischemic rats (n=9) were treated with the same volume of tap water as a control group. Functional tests were performed and body weight was measured before ischemia and at 4, 7, 14, 21, and 28 days after onset of MCA occlusion. All rats were killed 28 days after MCA occlusion. […] These rats were killed 1 hour after the last treatment for measurements of brain levels of cGMP. […] Experiments were also performed to examine brain PDE5, nonischemic rats and ischemic rats were killed at 2, 4, 24, 48, and 168 hours after the onset of ischemia (n=3 for each time point). Reverse transcription (RT)-polymerase chain reaction (PCR) was performed to detect PDE5 in brain tissue.
An adhesive removal test was used to measure somatosensory deficits and was performed before MCA occlusion and at 4, 7, 14, 21 and 28 days after MCA occlusion.

[3] = system: TuJ1-immunoreactive cells in the subventricular zone and striatum; test: TuJ1 immunostaining of immature neurons after embolic MCA occlusion
Procedure: Male Wistar rats weighing 320 to 380 g were used in the present study. The middle cerebral artery (MCA) was occluded by placement of an embolus at the origin of the MCA. […] Ischemic rats (n=9) were treated with the same volume of tap water as a control group. Functional tests were performed and body weight was measured before ischemia and at 4, 7, 14, 21, and 28 days after onset of MCA occlusion. All rats were killed 28 days after MCA occlusion. […] These rats were killed 1 hour after the last treatment for measurements of brain levels of cGMP. […] Reverse transcription (RT)-polymerase chain reaction (PCR) was performed to detect PDE5 in brain tissue. […] Reaction product was detected with the use of 3′3′-diaminobenzidine-tetrahydrochloride (DAB; Sigma), For ′III-tubulin (TuJ1) immunostaining, which identifies immature neurons, 12 coronal sections were incubated with the antibody against TuJ1 (1:1000) at 4° C. overnight and were then incubated with a biotinylated horse anti-mouse immunoglobulin antibody at room temperature for 30 minutes. […] BrdU-immunoreactive nuclei were counted on a computer monitor to improve visualization and in 1 focal plane to avoid oversampling. All BrdU-immunoreactive-positive nuclei were counted in both the ipsilateral and contralateral walls of the lateral ventricle of the subventricular zone and in the dentate gyrus. […]

[4] = Animal body weight loss after embolic MCA occlusion
Procedure: Male Wistar rats weighing 320 to 380 g were used in the present study. The middle cerebral artery (MCA) was occluded by placement of an embolus at the origin of the MCA. […] Ischemic rats (n=9) were treated with the same volume of tap water as a control group. Functional tests were performed and body weight was measured before ischemia and at 4, 7, 14, 21, and 28 days after onset of MCA occlusion. All rats were killed 28 days after MCA occlusion. […] These rats were killed 1 hour after the last treatment for measurements of brain levels of cGMP. […] Reverse transcription (RT)-polymerase chain reaction (PCR) was performed to detect PDE5 in brain tissue. Animals were weighed before and at 4, 7, 14, 21, and 28 days after embolic ischemia. Body weight loss is presented as a percentage of […] body weight.

[5] = Sildenafil 2 mg/kg, 2 h group, Before Ischemia (baseline)
[6] = Sildenafil 2 mg/kg, 24 h group, Before Ischemia (baseline)
[7] = Sildenafil 5 mg/kg, 2 h group, Before Ischemia (baseline)

NCCN(CCN)/[N+]([O-])=N/O [DETANONOate, (Z)-1-[N-(2-aminoethyl)-N-(2-ammonioethyl)aminio]diazen-1-ium-1,2-diolate]
Adhesive-Removal test score at 14 days [1]: no significant improvement

CCCc1nn(C)c2c(=O)[nH]c(-c3cc(S(=O)(=O)N4CCN(C)CC4)ccc3OCC)nc12 [Sildenafil]
Adhesive Removal Test ([2]; Sildenafil 2 mg/kg, 2 h, 4 d): 96.4 ± 9.8 s | Adhesive Removal Test ([2]; Sildenafil 2 mg/kg, 2 h, 7 d): 41.9 ± 8.4 s | Adhesive Removal Test ([2]; Sildenafil 2 mg/kg, 2 h, 14 d): 27.6 ± 3.9 s | Adhesive Removal Test ([2]; Sildenafil 2 mg/kg, 2 h, 21 d): 23.6 ± 5.1 s | Adhesive Removal Test ([2]; Sildenafil 2 mg/kg, 2 h, 28 d): 15.9 ± 3.8 s | Adhesive Removal Test [2, 5]: 7.0 ± 0.1 s | Adhesive Removal Test ([2]; Sildenafil 2 mg/kg, 24 h, 4 d): 102 ± 6.6 s | Adhesive Removal Test ([2]; Sildenafil 2 mg/kg, 24 h, 7 d): 49.4 ± 4.5 s | Adhesive Removal Test ([2]; Sildenafil 2 mg/kg, 24 h, 14 d): 14.1 ± 1.3 s | Adhesive Removal Test ([2]; Sildenafil 2 mg/kg, 24 h, 21 d): 14.0 ± 1.0 s | Adhesive Removal Test ([2]; Sildenafil 2 mg/kg, 24 h, 28 d): 10.7 ± 0.9 s | Adhesive Removal Test [2, 6]: 6.8 ± 0.3 s | Adhesive Removal Test ([2]; Sildenafil 5 mg/kg, 2 h, 4 d): 100.7 ± 9.2 s | Adhesive Removal Test ([2]; Sildenafil 5 mg/kg, 2 h, 7 d): 70.7 ± 10.8 s | Adhesive Removal Test ([2]; Sildenafil 5 mg/kg, 2 h, 14 d): 38.6 ± 7.9 s | Adhesive Removal Test ([2]; Sildenafil 5 mg/kg, 2 h, 21 d): 26.0 ± 6.6 s | Adhesive Removal Test ([2]; Sildenafil 5 mg/kg, 2 h, 28 d): 14.8 ± 3.9 s | Adhesive Removal Test [2, 7]: 16.7 ± 0.4 s | numbers of TuJ1-immunoreactive cells in the ipsilateral and contralateral subventricular zones ([3]; sildenafil 2 or 5 mg/kg, 28 days after ischemia, vs control rats): significantly (P=0.05) increased numbers of TuJ1-immunoreactive cells | number of TuJ1 cells in the ipsilateral striatum ([3]; sildenafil, vs contralateral hemisphere and ipsilateral striatum of control rats): significantly increased the number of TuJ1 cells | % of Preischemic Body Weight ([4]; Sildenafil 2 mg/kg, 2 h, 4 d): 81.8 ± 2.3% | % of Preischemic Body Weight ([4]; Sildenafil 2 mg/kg, 2 h, 7 d): 86.6 ± 2.5 % | % of Preischemic Body Weight ([4]; Sildenafil 2 mg/kg, 2 h, 14 d): 89.6 ± 4.7 % | % of Preischemic Body Weight ([4]; Sildenafil 2 mg/kg, 2 h, 21 d): 98.2 ± 3.7 % | % of Preischemic Body Weight ([4]; Sildenafil 2 mg/kg, 2 h, 28 d): 105.2 ± 3.0 % | % of Preischemic Body Weight [4, 5]: 100% | % of Preischemic Body Weight ([4]; Sildenafil 2 mg/kg, 24 h, 4 d): 86.9 ± 0.2% | % of Preischemic Body Weight ([4]; Sildenafil 2 mg/kg, 24 h, 7 d): 84.9 ± 1.8 % | % of Preischemic Body Weight ([4]; Sildenafil 2 mg/kg, 24 h, 14 d): 89.2 ± 2.6 % | % of Preischemic Body Weight ([4]; Sildenafil 2 mg/kg, 24 h, 21 d): 99.5 ± 2.0 % | % of Preischemic Body Weight ([4]; Sildenafil 2 mg/kg, 24 h, 28 d): 107.2 ± 2.5 % | % of Preischemic Body Weight [4, 6]: 100% | % of Preischemic Body Weight ([4]; Sildenafil 5 mg/kg, 2 h, 4 d): 84.6 ± 1.8% | % of Preischemic Body Weight ([4]; Sildenafil 5 mg/kg, 2 h, 7 d): 81.8 ± 2.5 % | % of Preischemic Body Weight ([4]; Sildenafil 5 mg/kg, 2 h, 14 d): 84.7 ± 3.9% | % of Preischemic Body Weight ([4]; Sildenafil 5 mg/kg, 2 h, 21 d): 95.2 ± 3.5 % | % of Preischemic Body Weight ([4]; Sildenafil 5 mg/kg, 2 h, 28 d): 101.3 ± 4.3% | % of Preischemic Body Weight [4, 7]: 100%
